{"source": "patent US20140045205A1", "about": "“GLUTAMYL AMINOPEPTIDASE AS A MARKER OF RENAL DAMAGE” (UNIVERSIDAD DE GRANADA, priority 2010, published 2014)", "key": {"[1]": {"tested_on": "CysAp", "experiment": "Urinary CysAp activity in rats, fluorometric analysis with cystinyl-β-naphthylamide", "format": "in vivo, Wistar rats", "experimental": "(§1) All treatments were maintained during 6 weeks. […] The GluAp, […] […] A blank was performed in duplicate for each sample."}, "[2]": {"tested_on": "AlaAp", "experiment": "Urinary AlaAp activity in rats, fluorometric analysis with alanyl-β-naphthylamide", "format": "in vivo, Wistar rats", "details": "for AlaAp urinary activity change: rats, 6 weeks treatment (8% NaCl in diet; methimazole 300 mg/l drinking water), versus control group", "experimental": "as §1"}, "[3]": {"experiment": "Proteinuria in rats (Bio-Rad DC Protein Assay kit, Lowry's method)", "quoted_text": "(§2) On the one hand, 42 male Wistar rats of 250 g in weight from the animal house of the University of Valladolid were distributed in 6 groups (n=7) with the following treatments: Control, Salt (8% NaCl in the diet), Hypothyroid (methimazole, 300 mg/l in drinking water), Hypothyroid+Salt, Hyperthyroid (daily s.c. injection of thyroxine (T4) 200 μg.kg^−1.day^−1), and Hyperthyroid+Salt.\n(§3) At the end of the experiment, and after a 2-day period of adaptation to the metabolic cages, each animal was introduced in a metabolic cage during 24 hours. The dieresis was determined, and the urine was centrifuged for 10 min at 1,000 g, aliquoted and frozen at −80° C. until its use.\nProteinuria was determined using a commercial kit from Bio-Rad (DC Protein Assay kit) based on Lowry's method."}, "[4]": {"tested_on": "GluAp", "experiment": "Urinary GluAp activity in rats, fluorometric analysis with glutamyl-β-naphthylamide", "details": "for GluAp urinary activity change: rats, 6 weeks treatment (8% NaCl in diet; methimazole 300 mg/l drinking water; T4 200 μg/kg/day s.c.), versus control group", "quoted_text": "as §2, §3\nThe GluAp, AlaAp, AspAp and CysAp activities were determined in duplicate by a fluorometric analysis using glutamyl-, alanyl-, aspartyl- and cystinyl-β-naphthylamide as substrates, respectively.\nThe substrates had been previously dissolved in 1 ml of DMSO and stored at -20° C.\nThe quantity of β-naphthylamine released as a result of the aminopeptidase activities was measured fluorometrically at an emission wavelength of 412 nm with excitation at 345 nm, taking a measurement of the fluorescence after 60 minutes, after stopping the reaction with 90 μl of 0.1 M acetate buffer.\nA blank was performed in duplicate for each sample. […] The fluorescence difference between both measurements was quantified using a standard curve of β-naphthylamine dissolved in water at the concentrations of 12.5, 25, 50, 100 and 200 nmol/ml 90 μl of the incubation solution corresponding to each enzyme without the substrate were added to 20 μl of this solution, they were incubated during 60 minutes at 37° C., and 90 μl of 0.1 M acetate buffer were added. It was verified that the presence of the substrate in the incubation solutions in no way modified the fluorescence of the standard. All measurements were made in duplicate, and the linearity of the fluorescence obtained in the curve range was verified (0-200 nmol/ml).\nBoth for the determinations of the samples and for the blanks, reaction blanks were performed containing 20 μl of distilled water, 90 μl of incubation solution with or without substrate, respectively, and 90 μl of sodium acetate.\nThe specific activity of each aminopeptidase was expressed as nanomoles of hydrolyzed substrate per minute and per mg of creatinine. The linearity of the fluorescence obtained was verified with respect to hydrolysis time and creatinine content in a same sample."}, "[5]": {"tested_on": "AspAp", "experiment": "Urinary AspAp activity in rats, fluorometric analysis with aspartyl-β-naphthylamide", "format": "in vivo, Wistar rats", "experimental": "as §1"}, "[6]": {"details": "rats, 8% NaCl in diet, 6 weeks", "quoted_text": "as §2"}, "[7]": {"details": "8% salt given simultaneously to hyperthyroid (T4) rats, 6 weeks, over the value of the hyperthyroid rats"}, "[8]": {"details": "rats, 6 weeks treatment (8% NaCl in diet; methimazole 300 mg/l drinking water; T4 200 μg/kg/day s.c.), versus control group"}, "[9]": {"details": "rats, 6 weeks treatment (methimazole 300 mg/l drinking water), versus control group"}, "[10]": {"details": "methimazole 300 mg/l given to rats treated with 8% salt (Hypothyroid+salt), 6 weeks, in comparison with rats treated with salt"}}, "data": [{"compound": "[Cl-].[Na+]", "note": "[Salt, NaCl]", "values": [{"measurement": "rise in CysAp activity", "setting": "[1]; [7]", "result": "around fivefold"}, {"measurement": "rise in AlaAp activity", "setting": "[2]; [7]", "result": "more than tenfold"}, {"measurement": "AlaAp urinary activity change", "setting": "[2]", "result": "significant increase"}, {"measurement": "proteinuria change", "setting": "[3]; 8% salt given simultaneously to hyperthyroid (T4) rats, 6 weeks", "result": "great increase"}, {"measurement": "proteinuria change", "setting": "[3]; [8]", "result": "not accompanied with proteinuria"}, {"measurement": "rise in GluAp activity", "setting": "[4]; [7]", "result": "more than tenfold"}, {"measurement": "GluAp urinary activity change", "setting": "[4]", "result": "significant increase"}, {"measurement": "rise in AspAp activity", "setting": "[5]; [7]", "result": "around fivefold"}, {"measurement": "plasma creatinine change", "setting": "[6]", "result": "not accompanied"}]}, {"compound": "Cn1cc[nH]c1=S", "note": "[methimazole, reference compound]", "values": [{"measurement": "CysAp urinary activity change", "setting": "[1]; [9]", "result": "no modification"}, {"measurement": "AlaAp activity change", "setting": "[2]; [10]", "result": "decrease"}, {"measurement": "AlaAp urinary activity change", "setting": "[2]", "result": "significantly decreased"}, {"measurement": "proteinuria change", "setting": "[3]; [8]", "result": "no modification"}, {"measurement": "GluAp activity change", "setting": "[4]; [10]", "result": "decrease"}, {"measurement": "GluAp urinary activity change", "setting": "[4]", "result": "no modification"}, {"measurement": "AspAp urinary activity change", "setting": "[5]; [9]", "result": "no modification"}]}]}
